From patent publication US20140094465A1, “Compounds as S-Nitrosoglutathione Reductase Inhibitors” (N30 PHARMACEUTICALS, INC., priority 2011, published 2014)

The compounds below were run against T1, S-nitrosoglutathione reductase (GSNOR) (Homo sapiens, UniProt P11766) (assay: GSNOR assay (inhibition of GSNOR activity, NADH absorbance at 340 nm)). Conditions: GSNOR inhibitor activity, Tables 1-6; read-out: IC50 range.
T1 construct: made in house; host or cells: E. coli
Format: biochemical
Method: Various compounds were tested in vitro for their ability to inhibit GSNOR activity.
GSNOR expression and purification is described in Biochemistry 2000, 39, 10720-10729.
Pre-cultures were grown from stabs of a GSNOR glycerol stock in 2XYT media containing 100 ug/ml ampicillin after an overnight incubation at 37° C. […] GSNOR expression was induced with 0.1% arabinose in an overnight incubation at 20° C.
E. coli cell paste was lysed by nitrogen cavitation and the clarified lysate purified by Ni affinity chromatography on an AKTA FPLC (Amersham Pharmacia). The column was eluted in 20 mM Tris pH 8.0/250 mM NaCl with a 0-500 mM imidazole gradient. Eluted GSNOR fractions containing the Smt-GSNOR fusion were digested overnight with Ulp-1 at 4° C. to remove the affinity tag then re-run on the Ni column under the same conditions. GSNOR was recovered in the flowthrough fraction and for crystallography is further purified by Q-Sepharose and Heparin flowthrough chromatography in 20 mM Tris pH 8.0, 1 mM DTT, 10 uM ZnSO4.
GSNOR assay: GSNO and enzyme/NADH Solutions are made up fresh each day. The solutions are filtered and allowed to warm to room temperature. GSNO solution: 100 mM NaPO4 (pH 7.4), 0.480 mM GSNO. 396 μL of GSNO Solution is added to a cuvette followed by 8 μL of test compound in DMSO (or DMSO only for full reaction control) and mixed with the pipette tip. Compounds to be tested are made up at a stock concentration of 10 mM in 100% DMSO. 2 fold serial dilutions are done in 100% DMSO. 8 μL of each dilution are added to an assay so that the final concentration of DMSO in the assay is 1%. The concentrations of compounds tested range from 100 to 0.003 μM. Enzyme/NADH solution: 100 mM NaPO4 (pH 7.4), 0.600 mM NADH, 1.0 μg/mL GSNO Reductase. 396 μL of the Enzyme/NADH solution is added to the cuvette to start the reaction. The cuvette is placed in the Cary 3E UV/Visible Spectrophotometer and the change in 340 nm absorbance/min at 25° C. is recorded for 3 minutes. The assays are done in triplicate for each compound concentration. IC50's for each compound are calculated using the standard curve analysis in the Enzyme Kinetics Module of SigmaPlot.
Final assay conditions: 100 mM NaPO4, pH 7.4, 0.240 mM GSNO, 0.300 mM NADH, 0.5 μg/mL GSNO Reductase, and 1% DMSO. Final volume: 800 μL/cuvette.

T1 sequence (P11766 whole entry): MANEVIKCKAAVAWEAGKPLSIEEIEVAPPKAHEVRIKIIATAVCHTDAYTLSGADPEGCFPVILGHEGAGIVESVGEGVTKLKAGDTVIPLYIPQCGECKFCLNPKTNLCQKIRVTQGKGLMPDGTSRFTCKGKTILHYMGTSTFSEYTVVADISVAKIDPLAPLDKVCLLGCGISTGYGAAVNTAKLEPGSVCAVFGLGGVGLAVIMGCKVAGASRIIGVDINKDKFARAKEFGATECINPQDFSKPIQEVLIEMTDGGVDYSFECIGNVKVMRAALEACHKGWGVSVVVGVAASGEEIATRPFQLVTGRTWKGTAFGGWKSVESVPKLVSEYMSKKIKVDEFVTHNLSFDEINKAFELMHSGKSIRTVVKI

| SMILES | IC50 [nM] |
| --- | --- |
| O=C(O)c1ccc(-c2c(C(F)(F)F)oc3cc(O)ccc3c2=O)cc1F [IV-14] | < 100 |
| O=C(O)c1ccc(-c2c(C(F)(F)F)oc3cc(O)ccc3c2=O)c(Cl)c1 [IV-15] | < 100 |
| CC(F)(F)c1oc2cc(O)ccc2c(=O)c1-c1ccc(C(=O)O)cc1 [IV-16] | < 100 |
| O=C(O)c1ccc(-c2c(C(F)(F)F)oc3cc(O)ccc3c2=O)cc1Cl [IV-18] | < 100 |
| COc1cc(C(=O)O)ccc1-c1c(C(F)(F)F)oc2cc(O)ccc2c1=O [IV-20] | < 100 |
| O=C(O)c1ccc(-c2c(C(F)(F)F)oc3cc(O)ccc3c2=O)s1 [IV-24] | < 100 |
| O=c1c(-c2ccc(-c3nnn[nH]3)cc2)c(C(F)F)oc2cc(O)ccc12 [IV-27] | < 100 |
| Cc1oc2cc(O)ccc2c(=O)c1-c1ccc(-c2nnn[nH]2)cc1 [IV-28] | < 100 |
| CS(=O)(=O)NC(=O)c1ccc(-c2c(C(F)(F)F)oc3cc(O)ccc3c2=O)cc1 [IV-32] | 100 to 1000 |
| O=c1[nH]c(-c2ccc(-c3c(C(F)(F)F)oc4cc(O)ccc4c3=O)cc2)ns1 [IV-33] | < 100 |
| Cc1sc2cc(O)ccc2c(=O)c1-c1ccc(-c2nnn[nH]2)cc1 [IV-34] | < 100 |
| O=C(O)c1csc(-c2c(C(F)(F)F)oc3cc(O)ccc3c2=O)c1 [IV-35] | 100 to 1000 |
| O=c1c(C2CCC(c3nn[nH]n3)CC2)c(C(F)(F)F)oc2cc(O)ccc12 (centres unmarked) [IV-36] | < 100 |
| O=C(NO)c1ccc(-c2c(C(F)(F)F)oc3cc(O)ccc3c2=O)cc1 [IV-37] | 100 to 1000 |
| O=c1c(-c2ccc(-c3nnn[nH]3)cc2Cl)c(C(F)(F)F)oc2cc(O)ccc12 [IV-39] | < 100 |
| O=c1[nH]c(-c2ccc(-c3c(C(F)(F)F)oc4cc(O)ccc4c3=O)c(Cl)c2)no1 [IV-40] | < 100 |
| O=c1[nH]c(-c2ccc(-c3c(C(F)(F)F)oc4cc(O)ccc4c3=O)c(F)c2)no1 [IV-41] | < 100 |
| O=c1c(-c2ccc(-c3nnn[nH]3)c(Cl)c2)c(C(F)(F)F)oc2cc(O)ccc12 [IV-42] | < 100 |
| Cc1cc(C(=O)O)ccc1-c1c(C(F)(F)F)oc2cc(O)ccc2c1=O [IV-43] | < 100 |
| O=c1c(-c2ccc(-c3nnn[nH]3)cc2)coc2cc(O)ccc12 [IV-44] | < 100 |
| O=c1c(-c2ccc(O)c([N+](=O)[O-])c2)c(C(F)(F)F)oc2cc(O)ccc12 [IV-45, 7-hydroxy-3-(4-hydroxy-3-nitrophenyl)-2-(trifluoromethyl)-4H-chromen-4-one] | < 100 |
| CCOc1cc(-c2c(C(F)(F)F)oc3cc(O)ccc3c2=O)cc([N+](=O)[O-])c1O [IV-46, 3-(3-ethoxy-4-hydroxy-5-nitrophenyl)-7-hydroxy-2-(trifluoromethyl)-4H-chromen-4-one] | < 100 |

Next, values leading:

| IC50 [nM] | SMILES |
| --- | --- |
| 100 to 1000 | O=C(C[C@H]1CC[C@H](C(=O)O)CC1)c1ccc(O)cc1O [VI-1, (trans)-4-(2-(2,4-dihydroxyphenyl)-2-oxoethyl)cyclohexanecarboxylic acid] |
| < 100 | O=C(O)c1ccc(CC(=O)c2ccc(O)cc2F)c(F)c1 [VI-2, 3-fluoro-4-(2-(2-fluoro-4-hydroxyphenyl)-2-oxoethyl)benzoic acid] |
| < 100 | O=C(O)c1ccc(CC(=O)c2ccc(O)c(F)c2F)c(F)c1 [VI-3, 4-(2-(2,3-difluoro-4-hydroxyphenyl)-2-oxoethyl)-3-fluorobenzoic acid] |
| < 100 | O=C(O)c1ccc(CC(=O)c2ccc(O)c(F)c2)c(F)c1 [VI-4, 3-fluoro-4-(2-(3-fluoro-4-hydroxyphenyl)-2-oxoethyl)benzoic acid] |
| < 100 | O=C(O)c1ccc(CC(=O)c2ccc(O)c(F)c2F)cc1 [VI-5, 4-(2-(2,3-difluoro-4-hydroxyphenyl)-2-oxoethyl)benzoic acid] |
| < 100 | O=C(O)c1ccc(CC(=O)c2ccc(O)cc2Cl)c(F)c1 [VI-6, 4-(2-(2-chloro-4-hydroxyphenyl)-2-oxoethyl)-3-fluorobenzoic acid] |
| 100 to 1000 | O=C(O)c1ccc(CC(=O)c2cc(F)c(O)cc2F)c(F)c1 [VI-7, 4-(2-(2,5-difluoro-4-hydroxyphenyl)-2-oxoethyl)-3-fluorobenzoic acid] |
| 100 to 1000 | O=C(O)c1ccc(CC(=O)c2cc(F)c(O)c(F)c2)c(F)c1 [VI-8, 4-(2-(3,5-difluoro-4-hydroxyphenyl)-2-oxoethyl)-3-fluorobenzoic acid] |
| < 100 | O=C(O)c1ccc(CC(=O)c2ccc(O)cc2)c(F)c1 [VI-9, 3-fluoro-4-(2-(4-hydroxyphenyl)-2-oxoethyl)benzoic acid] |
| 100 to 1000 | O=C(O)c1ccc(CC(=O)c2c(F)cc(O)cc2F)c(F)c1 [VI-10, 4-(2-(2,6-difluoro-4-hydroxyphenyl)-2-oxoethyl)-3-fluorobenzoic acid] |
| 100 to 1000 | O=C(O)c1ccc(CC(=O)c2ccc(O)cc2)cc1 [VI-11, 4-(2-(4-hydroxyphenyl)-2-oxoethyl)benzoic acid] |
| 1000 to 10000 | CC(C(=O)c1ccc(O)cc1O)c1ccc(C(=O)O)cc1 (centres unmarked) [VI-12, 4-(1-(2,4-dihydroxyphenyl)-1-oxopropan-2-yl)benzoic acid] |
| 1000 to 10000 | O=C(O)c1ccc(/C=C/c2ccc(O)cc2O)cc1 [VI-13, (E)-4-(2,4-dihydroxystyryl)benzoic acid] |
| 100 to 1000 | O=C(O)c1ccc(NC(=O)c2ccc(O)cc2C(F)(F)F)cc1 [VI-14, 4-(4-hydroxy-2-(trifluoromethyl)benzamido)benzoic acid] |
| 100 to 1000 | O=C(O)c1ccc(NC(=O)c2ccc(O)cc2F)cc1 [VI-15, 4-(2-fluoro-4-hydroxybenzamido)benzoic acid] |
| 1000 to 10000 | O=C(O)c1ccc(NC(=O)c2ccc(O)cc2O)cc1 [VI-16, 4-(2,4-dihydroxybenzamido)benzoic acid] |
| < 100 | O=C(O)c1ccc(/C(=C\C(F)(F)F)C(=O)c2ccc(O)cc2O)cc1 [VI-17, (E)-4-(1-(2,4-dihydroxyphenyl)-4,4,4-trifluoro-1-oxobut-2-en-2-yl)benzoic acid] |
| 100 to 1000 | O=C(O)c1ccc(CC(=O)c2ccc(O)cc2O)c(F)c1 [VI-18, 4-(2-(2,4-dihydroxyphenyl)-2-oxoethyl)-3-fluorobenzoic acid] |
| 100 to 1000 | O=C(O)c1ccc(COc2ccc(O)cc2F)c(F)c1 [VI-19, 3-fluoro-4-((2-fluoro-4-hydroxyphenoxy)methyl)benzoic acid] |
| < 100 | O=C(O)c1ccc(CS(=O)(=O)c2ccc(O)c(F)c2)c(F)c1 [VI-20, 3-fluoro-4-(((3-fluoro-4-hydroxyphenyl)sulfonyl)methyl)benzoic acid] |
| < 100 | O=C(O)c1ccc(COc2ccc(O)c(F)c2F)c(F)c1 [VI-21, 4-((2,3-difluoro-4-hydroxyphenoxy)methyl)-3-fluorobenzoic acid] |
| 100 to 1000 | O=C(O)c1ccc(COc2cc(F)c(O)cc2F)c(F)c1 [VI-22, 4-((2,5-difluoro-4-hydroxyphenoxy)methyl)-3-fluorobenzoic acid] |
| 100 to 1000 | O=C(O)c1ccc(COc2ccc(O)c(F)c2)c(F)c1 [VI-23, 3-fluoro-4-((3-fluoro-4-hydroxyphenoxy)methyl)benzoic acid] |
| 100 to 1000 | O=C(O)c1ccc(CSc2ccc(O)cc2)c(F)c1 [VI-24, 3-fluoro-4-(((4-hydroxyphenyl)thio)methyl)benzoic acid] |
| 100 to 1000 | O=C(O)c1ccc(C[S+]([O-])c2ccc(O)cc2)c(F)c1 (centres unmarked) [VI-25, 3-fluoro-4-(((4-hydroxyphenyl)sulfinyl)methyl)benzoic acid] |
| < 100 | O=C(O)c1ccc(CS(=O)(=O)c2ccc(O)cc2)c(F)c1 [VI-26, 3-fluoro-4-(((4-hydroxyphenyl)sulfonyl)methyl)benzoic acid] |
| 100 to 1000 | O=C(O)c1ccc(CC(=O)c2ccc(O)c(F)c2O)c(F)c1 [VI-27, 3-fluoro-4-(2-(3-fluoro-2,4-dihydroxyphenyl)-2-oxoethyl)benzoic acid] |
| 1000 to 10000 | O=C(O)c1ccc(CCC(=O)c2ccc(O)c(F)c2F)cc1 [VI-29, 4-(3-(2,3-difluoro-4-hydroxyphenyl)-3-oxopropyl)benzoic acid] |
| 1000 to 10000 | O=C(O)c1ccc(CCC(=O)c2ccc(O)cc2)cc1 [VI-30, 4-(3-(4-hydroxyphenyl)-3-oxopropyl)benzoic acid] |
| 1000 to 10000 | O=C(O)c1ccc(NCc2ccc(O)c(F)c2)c(F)c1 [VI-31, 3-fluoro-4-((3-fluoro-4-hydroxybenzyl)amino)benzoic acid] |

Same assay, conditions: GSNOR; read-out: IC50

| IC50 [nM] | SMILES |
| --- | --- |
| < 100 | O=C(O)c1ccc(CC(=O)c2ccc(O)cc2F)c(F)c1 [VI-2, 3-fluoro-4-(2-(2-fluoro-4-hydroxyphenyl)-2-oxoethyl)benzoic acid] |
